Measurements reported in patent US20170367338A1, “COMPOSITIONS AND METHODS FOR IMPROVING AGRONOMIC CHARACTERISTICS OF PLANTS” (MONSANTO TECHNOLOGY LLC, priority 2014, published 2017).
≈ marks a conversion by molar mass, not a printed value. Where two headings read alike, the source gives them in different places. Marks after values point to notes of the source that are not given here.

What was measured:
Meloidogyne incognita [1] = test: Fall nematicidal field test on squash; conditions: for RG28 % root galls at 28 days after treatment / RG43 % root galls at 43 days after treatment / RW28 root weight at 28 days after treatment / RW43 root weight at 43 days after treatment / TW28 top weight at 28 days after treatment: squash
Excerpt: The soil was a native prairie/pasture covering silty clay loam soil. […] Total volume of each hole was about 1.2 cubic feet. […] Holes were filled and then re-filled 5 days later after settling. […] Organic matter was 0.2% and pH was 6.8.
Treatments were arranged in a block design with the blocks laid out perpendicular to the primary slope and parallel to secondary slope. There are 7 inoculated controls and 5 non-inoculated controls and the distributions of disease severity appeared independent of location.
The resultant mix is the same as used in the standard greenhouse assays (10% acetone, 0.05% X100). The oxamyl treatments were prepared from Vydate 2L formulated the same way. The 500 ml was placed in a watering can and the entire volume was evenly sprinkled over the surface of the plot. No runoff occurred and pooling, if any, was short lived. The final drench volume was 0.58 ml/cm^2, compared to 0.2 ml/cm^2 used in our greenhouse, however the microplots are much deeper so the drench volume applied per soil volume treated is roughly the same.
Meloidogyne incognita eggs were harvested over a two week period and stored at approximately 5° C. until needed. A stock of 5.6 million vermiform eggs was adjusted to 9000/m1 in 620 ml. One day after treatment, two holes were made in each plot about 7 cm apart and equidistant from the squash plants. Five ml of egg suspension was pipetted into each hole, which was then sealed and the plot lightly watered. A total of 90,000 vermiform eggs were added to each plot.
The first root evaluation was at 28 DAT. The tops were cut off and weighed immediately in the field, and the roots were carefully dug out so as not to disturb the remaining plant.

Meloidogyne incognita [2] = test: M. incognita miniaturized greenhouse assay on cucumber seedlings; type: in vivo
Method: The test compound is dissolved in an acetone solution and added to water. A sprouted cucumber seedling is placed into a vial with dry sand and the water-chemical solution is added immediately. Twenty four hours later Meloidogyne incognita eggs are added to the vials and 10 to 12 days later the roots are evaluated for nematode galling.
Cucumber seeds are sprouted for 3 days in moist paper towels. Acceptable sprouts should be 3 to 4 cm long with several lateral roots just emerging. Stock solutions of chemistry are prepared in a mixture of acetone and Triton X100 (412 mg in 500 mL) to a final concentration of 5 mg/mL. The chemical stock solution is then added to 10 mL deionized water plus 0.015% Triton X100 and mixed thoroughly. This is enough to test each condition in triplicate. Ten mL dry sand is added to each vial. At this time the solubility of the chemistry is visually determined and recorded as either ppt (large precipitates) or cloudy (fine precipitates). Seedlings are planted by tilting the vial and laying the seedling in the correct orientation so that the cotyledons are just above the sand and then tilting back to cover the radicles with sand. 3.3 ml water/chemical mix is added to each vial and the vials placed in racks under fluorescent light banks. The vials are inoculated two days after planting by adding 500 vermiform M. incognita eggs to each vial in 50 uL of deionized or spring water. The vials are then kept under the fluorescent lamps at ambient room temperature and watered as needed with 1mL deionized water, usually twice during duration of test. Harvest of the cucumber plants is done 10 to 12 days after inoculation by washing sand off the roots. A root gall rating and visual phytotoxicity rating is assigned using the following scales: Gall rating scale (Gall: % root mass galled): 0=0-5%; 1=6-20%; 2=21-50%; and 3=51-100%. The average of the triplicate gall rating is then calculated: green=0.00-0.33 (no galls); yellow=0.67-1.33 (mild galling); orange=1.67-2.33 (moderate galling); red=2.67-3.00 (severe galling). Visual phytotoxicity scale is also assigned (Vis. tox; visual reduction in root mass compared to the control): rs1=mild stunting; rs2=moderate stunting; rs3=severe stunting.

Meloidogyne incognita [3] = test: Summer field evaluation of pre-plant incorporated compounds on squash; type: in vivo
Method: Test plots of 33 cm diameter holes were bored 41 cm deep into clay soil and filled with a mixture of 80% sand and 20% silt loam soil. Technical compound for each treatment was dissolved in 50 ml acetone containing 250 ul of Triton X-100 surfactant. This solution was added to 450 ml water and poured onto 95 liters of sand/soil mixture in a rotating drum mixer. While continuing to rotate the mixing drum 66 grams of chopped, galled, tomato roots was added and thoroughly distributed. The treated soil was sufficient to fill the top 15 cm of each of the 6 replicate plots, thus simulating a PPI treatment. The plots were then watered lightly and a mixture of M. incognita eggs and larvae were injected 5 cm deep at 5 points within the plot (100k eggs/larvae in 10m1 per plot). Three-week old squash (cv. Liberator III) with 1 fully expanded true leaf was planted 4 days after soil treatment, one per plot.

[4] = system: Heterodera glycines (SCN); test: Seed treatment test of soybean cyst nematode on soybean; type: in vivo; conditions: Heterodera glycines, 672 h, read-out: percent cyst reduction relative to control blank treatment
Method: For a given concentration the chemical is dissolved in 500 ul of acetone and one gram of cucumber seed (RKN test) or soybean seed (SCN test) is added (e.g., 20 mg active ingredient in 500 ul acetone plus 1 gram of seed). The seed solutions are agitated until all seeds were thoroughly covered with the chemical solution. The acetone is then allowed to evaporate by air drying the seeds. The seeds are planted in 2-inch pots containing sandy soil and then the pots are inoculated with 1000 Meloidogyne incognita (RKN) or 1000 Heterodera glycines (SCN) eggs per pot three days after planting. Plants are rated for galling 14 days after egg inoculation for RKN or 28 days after egg inoculation for SCN.

[5] = system: soybean cyst nematode (SCN); test: SCN greenhouse sand assay on soybean plants; type: in vivo; conditions: Glycine max, 672 h, read-out: percent control (cyst number reduction) relative to the control blank treatment; for pest or weed control at 2000 g/ha: 2 kg/ha
Excerpt: Soybeans seeds are planted in 100% sand in two inch square plastic pots. Chemical treatment is done when the soybeans show the first trifoliate beginning to emerge about 10 to 12 days after planting. At least four hours after chemical application the nematode soybean cyst nematode (SCN) eggs are applied and 28 days after the egg inoculation the test is harvested.
One milligram of chemistry per four pots is equal to one kilogram per hectare of chemical. A standard test uses four replications. For rates above 2 kg/ha, the desired amount of chemical is weighed into a 30 ml vial (example: 8 kg/ha rate =8 mg chemical in 30 ml vial). The chemical is dissolved in 2 ml of appropriate solvent, generally acetone. For rates below 2 kg/ha, 2 milligrams of chemistry is weighed into the vial and dissolved in 2 ml of the solvent. The appropriate amount of chemical concentrate is then pipetted into a separate 30 ml vial and solvent is added to bring the volume to 2 ml (example 0.5 kg/ha=0.5 ml of concentrate+1.5 ml solvent). Each dissolved concentrate is then brought to a total of 20 milliliters using 0.05% Triton X 100 surfactant solution.
Pots to be treated are moist but not saturated. To each of four pots, five milliliters of the appropriate chemical solution is pipetted to the media surface making sure to avoid contact with the base of the plant. Immediately following chemical application, using a mist nozzle, the pot surface is wetted sufficiently to saturate the pot watering in the chemistry. The chemical application is done in the morning.
Nematode eggs, either SCN or RKN, are added to distilled water to create a concentration of 1000 vermiform eggs […]. At least four hours after chemical treatment the eggs are applied to the treated pots plus non-treated check plants. A small hole about 1 cm deep is punched into the pot surface. One milliliter of the nematode egg slurry is pipetted into the hole. Immediately afterwards the hole is gently covered. Watering of the test plants is then restricted to only water as needed to prevent wilt for a period of 24 hours. After the 24 hour restricted watering, normal sub-irrigation watering is done for the duration of the test.

[6] = type: in vivo; conditions: 500 mg/kg oral, three female mice, observed up to 14 days
Method: Acute oral toxicity testing was performed in mice in accordance with test method P203.UDP, as administered by Eurofins/Product Safety Laboratories (Dayton, New Jersey). CD-1/Swiss derived albino mice were obtained and group housed in suspended solid bottom caging. The mice were fed rodent chow and filtered tap water was supplied ad libitum. Following acclimation to the laboratory setting, a group of animals was fasted overnight by removing food from the cages. After the fasting period, three female mice were selected based on vitality and initial body weights. The individual compound doses were calculated from these body weights.
The test substance was prepared as a 1% (50 mg/kg) or 5% (500 mg/kg) weight to weight (w/w) mixture in a 0.5% w/w solution of carboxymethylcellulose (CMC) in distilled water. A tissue homogenizer was used to create a homogeneous mixture. A dose of 50 or 500 mg/kg was administered to three healthy mice per dose level by oral intubation using a ball-tipped gavage needle attached to a syringe. After administration, the animals were returned to their cages, and feed was replaced immediately after dosing.
Body weights were recorded prior to initiation and on Days 7 and 14 or a soon as possible after death.

C. elegans = test: Three day C. elegans well assay; type: in vivo; conditions: Caenorhabditis elegans, L1 larvae
Method: Various compounds were tested for nematicidal activity against C. elegans using contact assays in wells. The assays were performed as described below. The test compounds were solubilized in DMSO at 10 mg/ml to create 100× stock solutions. A dilution series was created by diluting the stock solution with DMSO. For each well assay 4 ul of the appropriate dilution is added to a well of a test plate. A 400 ul aliquot of bacterial stock (in M9 buffer with ampicillin and nystatin) are added to each well of the test plate. Worms are added and the test plate placed on a rotary shaker and held at 20° C. Worms are examined and scored at 4 hrs, 24 hrs, 48 hrs and 72 hours. L1 worms and L4 worms were used in the assay. L1 worms are prepared by plating eggs on a plate without a bacterial feeding layer. The eggs hatch and arrest at the L1 stage. This L1 stage population is then used to create a stock for the experiments. To create an L4 stage stock a small number of worms are taken from an overgrown and starved plate of worms and seeded on a plate with a bacterial feeder layer. A 25 ul aliquot of worms is added to each well in the assay.

## CNC(=O)O/N=C(\SC)C(=O)N(C)C [Oxamyl]
Meloidogyne incognita [1]; 2 kg ai/ha
  RG28 % root galls at 28 days after treatment: 45.0%
  RG43 % root galls at 43 days after treatment: 42.3%
  RW28 root weight at 28 days after treatment: 5.6
  RW43 root weight at 43 days after treatment: 14.3
  TW28 top weight at 28 days after treatment: 136.8
Meloidogyne incognita [1]; 5 kg ai/ha
  RG28 % root galls at 28 days after treatment: 10.5%
  RG43 % root galls at 43 days after treatment: 17.3%
  RW28 root weight at 28 days after treatment: 6.6
  RW43 root weight at 43 days after treatment: 12.7
  TW28 top weight at 28 days after treatment: 232.1
Meloidogyne incognita [2]; 1 ppm (oxamyl), Table 1A
  gall ratings: 0.67
Meloidogyne incognita [2]; Table 1B test a
  1 ppm gall ratings: 0.67
Meloidogyne incognita [2]; Table 1B test b
  1 ppm gall ratings: 1 (1=6-20%)
Meloidogyne incognita [2]; Table 1B test c
  1 ppm gall ratings: 1.33
Meloidogyne incognita [2]; Table 1B test d
  1 ppm gall ratings: 1.33
Meloidogyne incognita [2]; Table 1B test e
  1 ppm gall ratings: 1 (1=6-20%)
Meloidogyne incognita [2]; Table 1C test a
  1 ppm gall rating: 1.33
Meloidogyne incognita [2]; Table 1C test b
  1 ppm gall rating: 1 (1=6-20%)
Meloidogyne incognita [2]; Table 1C test c
  1 ppm gall rating: 0.67^c
Meloidogyne incognita [2]; Table 1D test a
  1 ppm gall rating: 1.33
Meloidogyne incognita [2]; Table 1D test b
  1 ppm gall rating: 1 (1=6-20%)
Meloidogyne incognita [3]; 4 kg/ha PPI, squash
  0-3 vigor 16DAP: 2.7
  0-3 vigor 21DAP: 2.5
  feeder root (3 = ave) 31DAP: 3.0
  gall % 31DAP: 85%
  root wgt (g) 31DAP: 37.0 g
  top wgt (lbs) 31DAP: 1.16 lbs
  total fruit (lbs): 1.09 lbs
[4]
  pest or weed control at 0.375 mg/g: -4%
  pest or weed control at 1.5 mg/g: 71%

## c1ccc(-c2cnc(-c3cccs3)o2)cc1 [compound 4417]
Meloidogyne incognita [1]; 2 kg ai/ha
  RW28 root weight at 28 days after treatment: 5.3
  RW43 root weight at 43 days after treatment: 16.4
  TW28 top weight at 28 days after treatment: 97.5
Meloidogyne incognita [1]; 2 kg/ha, five days after treatment (5 DAT)
  Leaf diameter of the first true leaves: slight reduction
Meloidogyne incognita [1]; 2 kg/ha, two days after treatment, squash seedlings
  phytotoxicity: slight phytotoxicity
[5]; test b
  pest or weed control at 2000 g/ha: 94%
[6]
  acute oral toxicity: mortality and signs: One animal died within four days

## Clc1ccc(-c2nnc(-c3cccs3)o2)cc1 [compound 4559]
Meloidogyne incognita [1]; 2 kg ai/ha
  RW28 root weight at 28 days after treatment: 6.4
  RW43 root weight at 43 days after treatment: 13.2
  TW28 top weight at 28 days after treatment: 150.8
Meloidogyne incognita [1]; 43 day time point
  control of root galling compared with oxamyl at an equivalent rate: significantly better than oxamyl
[5]; test a
  pest or weed control at 2000 g/ha: 98%

## Fc1ccc(-c2cnc(-c3cccs3)o2)cc1 [compound 4775]
[5]; test b
  pest or weed control at 2000 g/ha: 95%
[6]
  acute oral toxicity: mortality and signs: all animals survived

## FC(F)(F)c1cccc(-c2noc(-c3ccco3)n2)c1 [compound 5181]
[5]; test a
  pest or weed control at 2000 g/ha: 100%

## c1cncc(-c2noc(-c3ccco3)n2)c1 [compound 5292]
[5]; test a
  pest or weed control at 2000 g/ha: 92%

## Cc1occc1-c1nc(-c2ccc(Cl)cc2)no1 [compound 5867]
Meloidogyne incognita [2]; Table 1C test a
  1 ppm gall rating: 1 ^a (1=6-20%)

## COc1ccc(-c2noc(-c3ccoc3C)n2)cc1 [compound 5869]
Meloidogyne incognita [2]; Table 1C test a
  1 ppm gall rating: 1 ^a (1=6-20%)

## Cc1cc(Br)ccc1-c1nsc(-c2ccco2)n1 [compound 5939]
[5]; 0.1 kg/ha, test d
  pest or weed control at 100 g/ha: 64%
[5]; 0.25 kg/ha, test d
  pest or weed control at 250 g/ha: 88%
C. elegans; 24 h, one day of exposure, read-out: EC50 L1 1D
  EC50: 0.4 µg/mL (≈ 1.25 µM)
C. elegans; 48 h, two days of exposure, read-out: EC50 L1 2D
  EC50: 0.4 µg/mL (≈ 1.25 µM)
C. elegans; 72 h, three days of exposure, read-out: EC50 L1 3D
  EC50: 0.4 µg/mL (≈ 1.25 µM)

## Clc1ccc(-c2nsc(-c3ccco3)n2)c(Cl)c1 [compound 5960]
[6]
  acute oral toxicity: mortality and signs: all animals survived
Meloidogyne incognita [3]; 4 kg/ha
  control of M. incognita by PPI application: significant control
